The values that follow come from publication PMC3859608, “C-Terminus of the B-Chain of Relaxin-3 Is Important for Receptor Activity” (PLoS ONE, 2013).

Entries after “also recorded” stand apart in the source; their conditions may differ.

Test [1] concerns the target T1, RXFP4 (Homo sapiens, UniProt Q8TDU9).
T1 construct: expressed in transfected cells
Particulars: both A and B chain C-termini amidated vs acid; cited from earlier work. From the text:
Relaxin-3 is closely related to insulin-like peptide 5 (INSL5) as they both belong to the same branch in the phylogenetic tree of the relaxin family. In addition, the native receptors of relaxin-3 and INSL5, RXFP3 and RXFP4 respectively, belong to the same class of G-protein coupled receptors. On the basis of such close relationship between ligands (relaxin-3 and INSL5) and receptors (RXFP3 and RXFP4), it is most likely that relaxin-3 interacts with RXFP3 in a similar way to INSL5 interaction with RXFP4. Therefore, we tested all four H3 relaxin analogues on RXFP4. As expected, the H3 acid pept ... || The bioactivity of many polypeptide hormones often requires a form of post-translational modification of their precursors. An example of a widespread modification is C-terminal amidation which often leads to an increase in bioactivity of peptides [32]–[35]. In some cases, amidation of the C-terminus has been reported to have detrimental effect on the activity of peptides, [36]. […] In the case of relaxin family peptides, H2 relaxin and INSL3, both p ...

Test [2] deals with T1, RXFP4. Particulars: sentence cites ref 7; cited from earlier work. From the text: (§1) It is a neuropeptide that is primarily expressed in the brain with the highest level detected in the nucleus incertus (NI) of the mouse, [8], rat, macaque and human. Neurons from the NI project to many regions of the brain where its distribution overlaps w ...
Test [3] concerns the target T2, RXFP3 (Homo sapiens, UniProt Q9NSD7).
T2 construct: expressed in transfected cells
T2 sequence (Q9NSD7 1-469): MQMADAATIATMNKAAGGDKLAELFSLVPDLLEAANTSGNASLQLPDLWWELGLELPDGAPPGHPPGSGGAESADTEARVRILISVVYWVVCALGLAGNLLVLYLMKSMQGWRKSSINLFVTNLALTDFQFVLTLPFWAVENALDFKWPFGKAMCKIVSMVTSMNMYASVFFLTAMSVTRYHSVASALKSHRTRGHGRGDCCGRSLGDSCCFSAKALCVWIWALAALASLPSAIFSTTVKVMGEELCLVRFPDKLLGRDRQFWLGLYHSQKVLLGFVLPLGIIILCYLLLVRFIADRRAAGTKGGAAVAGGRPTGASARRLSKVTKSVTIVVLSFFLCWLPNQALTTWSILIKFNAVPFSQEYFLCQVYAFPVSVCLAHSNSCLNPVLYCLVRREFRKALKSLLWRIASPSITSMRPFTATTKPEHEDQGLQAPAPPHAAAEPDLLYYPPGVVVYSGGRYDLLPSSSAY
Particulars: cited from earlier work.
Description: as §1

Another test relates to RXFP1. Particulars: cited from earlier work.
Description: as §1

Test [4] deals with T2, RXFP3. Put plainly: Competition binding, Eu-labelled I5/R3, CHO-K1 cells expressing RXFP3. The note with it: CHO-K1 cells stably expressing RXFP3; Eu-I5/R3 0.5 nM; one site competition fit; mean ± SEM, n in parentheses in cell (3; H3 amide 4), triplicate determinations; ** p<0.01 vs H3 acid (H3 amide, H3 A-acid); read-out: RXFP3 Eu-H3/I5 pKi (converted). On the procedure:
(§2) The receptor binding affinity of the peptides was measured using CHO-K1 cells stably expressing RXFP3 and RXFP4. The competition binding assays were carried out as previously described, [27]. Briefly, a single concentration of Eu-labelled I5/R3 (0.5 nM) or Eu-labelled mouse INSL5 (2.5 nM) were used in presence of increasing concentration of peptides. The data were analyzed using GraphPad PRISM 5 (GraphPad Inc., San Diego, USA). The europium binding curves were fitted to a one site competition curve and the pKi values were expressed as the mean ± SEM of at least three independent experiments with triplicate determinations within each assay.
(§3) Figure 2 Receptor binding affinity (pKi) and cAMP activity (pEC-50) curves of H3 relaxin and its variants at RXFP3. A) Competition binding curves of H3 relaxin variants using a single concentration of Eu-I5/R3 (0.5 nM) in the presence of increasing concentrations of the H3 relaxin peptides. B) RXFP3 activation curves of H3 relaxin variants measured in a cAMP activity assay in the presence of 5 µM forskolin. The data were expressed as mean ± SEM. from at least three independent experiments.

The target in test [5] is T1, RXFP4. Briefly: cAMP activity (inhibition of forskolin-induced cAMP), CHO-K1 cells expressing RXFP4. Format: cell-based. Particulars: CHO-K1 RXFP4, pCRE-β-galactosidase reporter; forskolin 5 µM (method) / 1 µM (Fig. 3 legend); peptide 0.01 nM – 1 µM; mean ± SEM, n = 3, triplicate determinations; vs H3 acid: * H3 amide, ** p<0.01 H3 A-acid; read-out: RXFP4 cAMP pEC50 (converted). On the procedure: (§4) The ability of the peptides to activate the receptors RXFP3/RXFP4 was assessed by measuring their influence on cAMP signalling in CHO-K1 cells stably expressing RXFP3 or RXFP4 transfected with a pCRE-β-galactosidase reporter gene construct as previously described. A single concentration of forskolin was used to stimulate cAMP signalling in cells expressing RXFP3 (1 µM) and RXFP4 (5 µM) and peptide induced inhibition of cAMP signalling was measured by adding increasing concentrations of the peptides (0.01 nM – 1 µM). The ability of the peptides to inhibit forskolin-induced cAMP response (pEC50) was measured and expressed as mean ± SEM from three independent experiments with triplicate determinations within each assay. The inhibition curves were fitted to a single-site sigmoidal dose-response curve with variable slope using Graphpad PRISM 5.
(§5) Figure 3 Receptor binding affinity (pKi) and cAMP activity (pEC-50) curves of H3 relaxin and its variants at RXFP4. A) Competition binding curves of H3 relaxin variants at RXFP4 using a single concentration of Eu-INSL5 (2.5 nM) in the presence of increasing concentrations of the H3 relaxin peptides. B) RXFP4 activation curves of H3 relaxin variants measured in a cAMP activity assays in the presence of 1 µM forskolin. The data were expressed as mean ± SEM from at least three independent experiments.

The target of test [6] is T2, RXFP3. Put plainly: cAMP activity (inhibition of forskolin-induced cAMP), CHO-K1 cells expressing RXFP3. It is filed as cell-based. The note with it: CHO-K1 RXFP3, pCRE-β-galactosidase reporter; forskolin 1 µM (method) / 5 µM (Fig. 2 legend); peptide 0.01 nM – 1 µM; mean ± SEM, n = 3, triplicate determinations; ** p<0.01 vs H3 acid (H3 amide, H3 A-acid); read-out: RXFP3 cAMP pEC50 (converted). On the procedure: as §4, §3

Test [7] concerns the target T1, RXFP4. Briefly: Competition binding, Eu-labelled mouse INSL5, CHO-K1 cells expressing RXFP4. The note with it: CHO-K1 cells stably expressing RXFP4; Eu-labelled mouse INSL5 2.5 nM; one site competition fit; mean ± SEM, n = 3, triplicate determinations; vs H3 acid: * H3 amide, ** p<0.01 H3 A-acid; read-out: RXFP4 Eu-INSL5 pKi (converted). How it is done:
as §2, §5

In test [8] the target is T2, RXFP3. Particulars: in presence of orthosteric agonist; H3 amide or H3 acid; cited from earlier work. From the text: In this endeavour, a small molecule, 135PAM1, has recently been discovered by Alvarez-Jaimes et al. They reported that it was an allosteric modulator of RXFP3 that worked in the presence of an orthosteric agonist, H3 relaxin.

T1 sequence (Q8TDU9 whole entry, species assumed): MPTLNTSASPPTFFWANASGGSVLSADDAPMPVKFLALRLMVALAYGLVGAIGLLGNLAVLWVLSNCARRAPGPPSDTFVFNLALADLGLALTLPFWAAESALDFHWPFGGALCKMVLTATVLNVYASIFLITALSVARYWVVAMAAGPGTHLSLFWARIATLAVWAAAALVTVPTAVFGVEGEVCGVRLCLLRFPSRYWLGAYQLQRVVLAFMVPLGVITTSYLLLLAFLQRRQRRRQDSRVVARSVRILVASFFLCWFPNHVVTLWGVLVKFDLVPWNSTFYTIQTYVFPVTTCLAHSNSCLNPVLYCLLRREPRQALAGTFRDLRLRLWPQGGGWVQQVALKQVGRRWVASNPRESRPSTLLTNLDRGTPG

For “INSL5: insulin-like peptide 5; native ligand of RXFP4 (Insulin-like peptide INSL5 B … KESVRLCGLEYIRTVIYICASSRW; Insulin-like peptide INSL5 A … QDLQTLCCTDGCSMTDLSALC; UniProt Q9Y5Q6 23-46; Q9Y5Q6 115-135, looked up)”, the “C-terminus requirement for RXFP4 activity of INSL5” value with RXFP4 [1] was “need to be an acid for full RXFP4 activity; also recorded: C-termini were required to be free (acid) for high RXFP4 activity”.
As for “H3 relaxin: neuropeptide with two chains (A and B) connected by three disulfide bonds”, the “interaction with RXFP4” value with RXFP4 [2] is on record as “with high affinity”. Moreover, the “binding and activation of RXFP3” value with RXFP3 [3] is “binds and activates its cognate receptor”. In addition, the “interaction with RXFP1” value with RXFP1 was “with high affinity”.
With `CC[C@H](C)[C@@H]1NC(=O)[C@H](Cc2ccccc2)NC(=O)[C@H](CCC(=O)O)NC(=O)[C@H](CCCNC(=N)N)NC(=O)CNC(=O)[C@@H](NC(=O)[C@H](CC(C)C)NC(=O)[C@H](CCCNC(=N)N)NC(=O)[C@@H](NC(=O)CNC(=O)[C@H](Cc2ccc(O)cc2)NC(=O)[C@@H]2CCCN2C(=O)[C@H](C)NC(=O)[C@H](C)NC(=O)[C@@H](N)CCCNC(=N)N)C(C)C)CSSC[C@@H]2NC(=O)[C@@H](NC(=O)[C@H](CO)NC(=O)[C@H](CO)NC(=O)[C@H](CO)NC(=O)[C@H](CC(C)C)NC(=O)CNC(=O)[C@H](C)NC(=O)[C@H](CC(C)C)NC(=O)[C@@H](NC(=O)[C@@H](N)CC(=O)O)C(C)C)CSSC[C@H](NC(=O)CNC(=O)[C@H](Cc3c[nH]c4ccccc34)NC(=O)[C@H](CCCCN)NC2=O)C(=O)N[C@@H](CO)C(=O)N[C@@H](CCCCN)C(=O)N[C@@H](CO)C(=O)N[C@@H](CCC(=O)O)C(=O)N[C@@H]([C@@H](C)CC)C(=O)N[C@@H](CO)C(=O)N[C@@H](CO)C(=O)N[C@@H](CC(C)C)C(=O)N[C@H](C(=O)O)CSSC[C@@H](C(=O)NCC(=O)NCC(=O)N[C@@H](CO)C(=O)N[C@@H](CCCNC(=N)N)C(=O)N[C@@H](Cc2c[nH]c3ccccc23)C(N)=O)NC(=O)[C@H]([C@@H](C)O)NC(=O)[C@H](Cc2ccccc2)NC(=O)[C@H]([C@@H](C)CC)NC(=O)[C@H](C(C)C)NC(=O)[C@H](C)NC(=O)[C@H](CCCNC(=N)N)NC1=O` [H3 A-acid], the values for the Ki on RXFP3 [4] and at RXFP4 [7] were 151 nM and 117 nM, respectively. Moreover, the EC50 at RXFP4 [5] was 34.7 nM; on RXFP3 [6] it was 4.9 nM.
Consider `COc1ccc2[nH]cc(CCN(Cc3ccc(Cl)c(Cl)c3)C(=O)Nc3cc(C(F)(F)F)cc(C(F)(F)F)c3)c2c1` [135PAM1], for which the “allosteric activity of 135PAM1, dependence on H3 relaxin C-terminus” value at RXFP3 [8] is given as “active only when used with the non-native amidated form of H3 relaxin; also recorded: unable to act in the presence of the native form (acid) of H3 relaxin”.
